SMILES strings stand for the structures.

The compound `COc1cccc(CC(=O)O)c1OCCCc1cc(OC(C)C)nn1Cc1c(F)cccc1Cl` [Example 67, (2-{3-[1-(2-chloro-6-fluorobenzyl)-3-isopropoxy-1H-pyrazol-5-yl]propoxy}-3-methoxyphenyl)acetic acid] registered a melting point of 97 to 98 °C.

With `CC(C)Oc1cc(CCCOc2ncccc2CC(=O)O)n(Cc2ccc(Cl)cc2OC(C)C)n1` [Example 94, (2-{3-[1-(4-chloro-2-isopropoxybenzyl)-3-isopropoxy-1H-pyrazol-5-yl]propoxy}pyridin-3-yl)acetic acid], the melting point lay in the range of 82 to 84 °C. Under `CC(C)Oc1ccc(CCCOc2cc(CCC(=O)O)n(C)n2)c(OCc2ccc(Cl)cc2Cl)c1` [Example 161, 3-[3-(3-{2-[(2,4-dichlorobenzyl)oxy]-4-isopropoxyphenyl}propoxy) 1-methyl-1H-pyrazol-5-yl]propanoic acid] stands 125 to 127 °C; under `CC(C)Oc1cc(CCCOc2c(CC(=O)O)ccc3ccccc23)n(Cc2ccc(Cl)cc2Cl)n1` [Example 87, (1-{3-[1-(2,4-dichlorobenzyl)-3-isopropoxy-1H-pyrazol-5-yl]propoxy}-2-naphthyl)acetic acid], 96 to 98 °C. Under `CCn1nc(OCCCc2ccc(OCCOC)cc2OCc2ccc(C(F)(F)F)cc2)cc1CCC(=O)O` [Example 170, 3-{1-ethyl-3-[3-(4-(2-methoxyethoxy)-2-{[4-(trifluoromethyl)benzyl]oxy}phenyl)propoxy]-1H-pyrazol-5-yl}propanoic acid] stands 112 to 113 °C. The figure for `CC(C)Oc1cc(CCCOc2cc(CCC(=O)O)n(C)n2)cc(COc2ccc(Cl)cc2Cl)c1` [Example 197, 3-[3-(3-{3-[(2,4-dichlorophenoxy)methyl]-5-isopropoxyphenyl}propoxy)-1-methyl-1H-pyrazol-5-yl]propanoic acid] is 116 to 120 °C; for `CC(C)Oc1ccc(CCCOc2cc(CCC(=O)O)n(C)n2)c(Oc2ncc(Cl)cc2Cl)c1` [Example 140, 3-[3-(3-{2-[(3,5-dichloropyridin-2-yl)oxy]-4-isopropoxyphenyl}propoxy)-1-methyl-1H-pyrazol-5-yl]propanoic acid] it is 77 to 78 °C. The compound `CC(C)Oc1cc(Oc2ccc(C(F)(F)F)cn2)ccc1CCCOc1cc(CCC(=O)O)n(-c2ccccc2)n1` [Example 151, 3-{3-[3-(2-isopropoxy-4-{[5-(trifluoromethyl)pyridin-2-yl]oxy}phenyl)propoxy]-1-phenyl-1H-pyrazol-5-yl}propanoic acid] gave a melting point of 129.5 to 130.5 °C. The figure for `CCCOc1cc(CCCOc2nn(C)cc2CC(=O)O)n(Cc2ccc(Cl)cc2Cl)n1` [Example 88, (3-{3-[1-(2,4-dichlorobenzyl)-3-propoxy-1H-pyrazol-5-yl]propoxy}-1-methyl-1H-pyrazol-4-yl)acetic acid] is 77 to 81 °C. Under `CCOc1ccc(CCCOc2c(CC(=O)O)cccc2OC)c(Oc2ccc(Cl)cc2Cl)n1` [Example 134, (2-{3-[2-(2,4-dichlorophenoxy)-6-ethoxypyridin-3-yl]propoxy}-3-methoxyphenyl)acetic acid] stands 89 to 91 °C; under `CN(C)CCOc1cc(CCCOc2nn(Cc3ccccc3)cc2CC(=O)O)n(Cc2ccc(Cl)cc2Cl)n1` [Example 96, [1-benzyl-3-(3-{1-(2,4-dichlorobenzyl)-3-[2-(dimethylamino)ethoxy]-1H-pyrazol-5-yl}propoxy)-1H-pyrazol-4-yl]acetic acid], 78.3 to 80.8 °C; under `CC(C)c1ncc(CCCOc2nn(Cc3ccccc3)cc2CC(=O)O)c(Oc2ccc(Cl)cc2Cl)n1` [Example 129, (3-{3-[4-(2,4-dichlorophenoxy)-2-isopropylpyrimidin-5-yl]propoxy}-1-benzyl-1H-pyrazol-4-yl)acetic acid], 98 to 99 °C.

Turning to `CC(C)Oc1ccc(CCCOc2cc(CCC(=O)O)n(-c3ccccc3)n2)c(Oc2ccc(Cl)cc2Cl)n1` [Example 171, 3-(3-{3-[2-(2,4-dichlorophenoxy)-6-isopropoxypyridin-3-yl]propoxy}-1-phenyl-1H-pyrazol-5-yl)propanoic acid], the melting point was in the range of 60 to 62 °C. The compound `COCCOc1cc(Oc2ccc(C(F)(F)F)cn2)ccc1CCCOc1cc(CCC(=O)O)n(C)n1` [Example 154, 3-{3-[3-(2-(2-methoxyethoxy)-4-{[5-(trifluoromethyl)pyridin-2-yl]oxy}phenyl)propoxy]-1-methyl-1H-pyrazol-5-yl}propanoic acid] gave a melting point of 109.5 to 110.5 °C. The figure for `CCOCc1cc(COc2cc(CCC(=O)O)n(-c3ccccc3)n2)cc(Oc2ncc(C(F)(F)F)cc2Cl)c1` [Example 199, 3-(3-{[3-{[3-chloro-5-(trifluoromethyl)pyridin-2-yl]oxy}-5-(ethoxymethyl)benzyl]oxy}-1-phenyl-1H-pyrazol-5-yl)propanoic acid] is 124 to 128 °C; for `CCc1cccc(CC(=O)O)c1OCCCc1cc(OC(C)C)nn1Cc1ccc(Cl)cc1Cl` [Example 29, (2-{3-[1-(2,4-dichlorobenzyl)-3-isopropoxy-1H-pyrazol-5-yl]propoxy}-3-ethylphenyl)acetic acid] it is 98 to 99 °C; for `CCn1nc(OCCCc2ccc(OCCOC)cc2OCc2ccc(Cl)cc2Cl)cc1CCC(=O)O` [Example 165, 3-(3-{3-{2-[(2,4-dichlorobenzyl)oxy]-4-(2-methoxyethoxy)phenyl}propoxy}-1-ethyl-1H-pyrazol-5-yl)propanoic acid] it is 114 to 116 °C. The figure for `CC(C)Oc1ccc(CCCOc2cc(CCC(=O)O)n(-c3ccccc3)n2)c(Oc2ccc(C(F)(F)F)cn2)c1` [Example 172, 3-{3-[3-(4-isopropoxy-2-{[5-(trifluoromethyl)pyridin-2-yl]oxy}phenyl)propoxy]-1-phenyl-1H-pyrazol-5-yl}propanoic acid] is 80 to 82 °C; for `COc1cccc(CC(=O)O)c1OCc1cc(OCc2ccc3ccccc3n2)n(C(C)C)n1` [Example 9, (2-{[1-isopropyl-5-(quinolin-2-ylmethoxy)-1H-pyrazol-3-yl]methoxy}-3-methoxyphenyl)acetic acid] it is 84 to 85 °C. Under `CC(C)Oc1cc(Oc2ccc(C(F)(F)F)cn2)ccc1CCCOc1cc(CCC(=O)O)n(C)n1` [Example 152, 3-{3-[3-(2-isopropoxy-4-{[5-(trifluoromethyl)pyridin-2-yl]oxy}phenyl)propoxy]-1-methyl-1H-pyrazol-5-yl}propanoic acid] stands 128 to 130 °C; under `CCn1cc(CC(=O)O)c(OCCCc2ccc(Cc3ccccn3)cc2OC(C)C)n1` [Example 126, (3-{3-[2-isopropoxy-4-(pyridin-2-ylmethyl)phenyl]propoxy}-1-ethyl-1H-pyrazol-4-yl)acetic acid], 97 to 98 °C. `CCc1cnn(CC(=O)O)c1OCCn1cc(C(=O)NCc2ccc(C(F)(F)F)cc2)c(OC(C)C)n1` [Example 185, (4-ethyl-5-{2-[3-isopropoxy-4-({[4-(trifluoromethyl)benzyl]amino}carbonyl)-1H-pyrazol-1-yl]ethoxy}-1H-pyrazol-1-yl)acetic acid] yielded a melting point of 183 to 184 °C. In turn, `CC(C)c1nn(Cc2ccc(Cl)cc2Cl)cc1CCCOc1cc(CCC(=O)O)n(-c2ccccc2)n1` [Example 190, 3-(3-{3-[1-(2,4-dichlorobenzyl)-3-isopropyl-1H-pyrazol-4-yl]propoxy}-1-phenyl-1H-pyrazol-5-yl)propanoic acid] gave a melting point of 105 to 107 °C.

For `Cc1cc(Cl)ccc1Cn1nc(OC(C)C)cc1CCCOc1ncccc1CC(=O)O` [Example 74, (2-{3-[1-(4-chloro-2-methylbenzyl)-3-isopropoxy-1H-pyrazol-5-yl]propoxy}pyridin-3-yl)acetic acid], the melting point lay within 97 to 98 °C. Under `CCCOc1cc(CCCOc2nn(Cc3ccccc3)cc2CC(=O)O)n(Cc2ccc(F)cc2F)n1` [Example 90, (1-benzyl-3-{3-[1-(2,4-difluorobenzyl)-3-propoxy-1H-pyrazol-5-yl]propoxy}-1H-pyrazol-4-yl)acetic acid] stands 94 to 95 °C; under `CCc1cccc(CC(=O)O)c1OCCCc1cn(Cc2nc(-c3ccccc3)oc2C)nc1C(C)C` [Example 54, [3-ethyl-2-(3-{3-isopropyl-1-[(5-methyl-2-phenyl-1,3-oxazol-4-yl)methyl]-1H-pyrazol-4-yl}propoxy)phenyl]acetic acid], 94 to 95 °C; under `CCCOc1cc(COc2c(CC)cccc2CC(=O)O)n(Cc2ccc3ccccc3n2)n1` [Example 7, (3-ethyl-2-{[3-propoxy-1-(quinolin-2-ylmethyl)-1H-pyrazol-5-yl]methoxy}phenyl)acetic acid], 110 to 111 °C. `CC(C)Oc1cc(COc2ccc(C(F)(F)F)cc2)cc(COc2cc(CCC(=O)O)n(-c3ccccc3)n2)c1` [Example 202, 3-{3-[(3-isopropoxy-5-{[4-(trifluoromethyl)phenoxy]methyl}benzyl)oxy]-1-phenyl-1H-pyrazol-5-yl}propanoic acid] yielded a melting point of 55 to 58 °C. Compound `CCc1cccc(CC(=O)O)c1OCCCn1cc(C(=O)NCc2ccc(C(F)(F)F)cc2)c(OC(C)C)n1` [Example 186, (3-ethyl-2-{3-[3-isopropoxy-4-({[4-(trifluoromethyl)benzyl]amino}carbonyl)-1H-pyrazol-1-yl]propoxy}phenyl)acetic acid] registered a melting point of 107.5 to 108.5 °C. `Cc1cccc(CC(=O)O)c1OCCCc1cc(OC(C)C)nn1Cc1ccc(Cl)cc1Cl` [Example 24, (2-{3-[1-(2,4-dichlorobenzyl) -3-isopropoxy-1H-pyrazol-5-yl]propoxy}-3-methylphenyl)acetic acid] showed a melting point of 70 to 71 °C. The compound `CCOc1nn(Cc2ccc(Cl)cc2Cl)cc1CCCOc1nn(-c2ccccc2)cc1CCC(=O)O` [Example 193, 3-(3-{3-[1-(2,4-dichlorobenzyl)-3-ethoxy-1H-pyrazol-4-yl]propoxy}-1-phenyl-1H-pyrazol-4-yl)propanoic acid] came in with a melting point of 114 to 118 °C.

Turning to `CC(C)Oc1ccc(CCCOc2nn(C)cc2CC(=O)O)c(OCc2ccc(Cl)cc2Cl)c1` [Example 174, [3-(3-{2-[(2,4-dichlorobenzyl)oxy]-4-isopropoxyphenyl}propoxy)-1-methyl-1H-pyrazol-4-yl]acetic acid], the melting point was in the range of 102 to 103 °C.

Values taken from patent publication US20080051418A1, “Arylalkanoic Acid Derivative” (priority 2004, published 2008).
